Test system: dendritic cells in the draining lymph nodes
Assay: Dendritic cell phenotype in draining lymph nodes after subcutaneous vaccination
Format: in vivo, C57BL/6J mice
Settings: antigen alone as compared to vehicle-treated animals
Experimental: The activity of the polymeric adjuvant B18 was assessed in C57BL/6J mice. Vaccines were prepared by admixing a model peptide antigen (SIINFEKL) with B18 nanoparticles and injected subcutaneously into mice. Following three injections placed three days apart, animals were sacrificed and dendritic cell phenotype in the draining lymph nodes were analyzed using flow cytometry.

Sequence: SIINFEKL
- dendritic cell activation: no appreciable dendritic cell activation
